Experiments:
Prothrombin = Prothrombin (Homo sapiens, UniProt P00734); assay: Inhibitory concentration against thrombin(FIIa).
Plasminogen = Plasminogen (Rattus norvegicus, UniProt Q01177); assay: Inhibitory concentration against plasmin.
Serine protease 1 = Serine protease 1 (Homo sapiens, UniProt P07477); assay: Inhibitory concentration against trypsin.
[1] = Inhibitory concentration against factor Xa(FXa).

Chain of Serine protease 1 (P07477 whole entry): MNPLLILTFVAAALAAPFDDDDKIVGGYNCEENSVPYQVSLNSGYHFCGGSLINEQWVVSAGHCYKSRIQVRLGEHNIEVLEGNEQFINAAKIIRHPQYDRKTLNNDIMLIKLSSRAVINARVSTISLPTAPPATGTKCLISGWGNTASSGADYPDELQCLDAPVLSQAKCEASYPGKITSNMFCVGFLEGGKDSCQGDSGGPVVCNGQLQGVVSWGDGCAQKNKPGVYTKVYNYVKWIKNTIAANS
Chain of Plasminogen (Q01177 97-581 limits assumed): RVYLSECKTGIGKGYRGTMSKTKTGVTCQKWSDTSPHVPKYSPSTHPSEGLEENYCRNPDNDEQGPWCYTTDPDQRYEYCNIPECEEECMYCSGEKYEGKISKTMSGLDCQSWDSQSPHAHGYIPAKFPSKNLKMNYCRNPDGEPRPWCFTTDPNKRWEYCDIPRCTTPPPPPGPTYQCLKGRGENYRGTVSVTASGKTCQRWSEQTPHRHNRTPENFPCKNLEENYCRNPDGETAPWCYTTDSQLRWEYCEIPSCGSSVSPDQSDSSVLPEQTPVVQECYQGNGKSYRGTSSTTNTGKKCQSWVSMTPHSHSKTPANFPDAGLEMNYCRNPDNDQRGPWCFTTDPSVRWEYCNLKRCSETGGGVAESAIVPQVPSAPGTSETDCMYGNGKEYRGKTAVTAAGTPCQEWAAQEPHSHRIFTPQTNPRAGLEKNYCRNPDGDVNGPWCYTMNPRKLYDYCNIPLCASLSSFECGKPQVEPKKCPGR
Chain of Plasminogen (Q01177 582-812 limits assumed): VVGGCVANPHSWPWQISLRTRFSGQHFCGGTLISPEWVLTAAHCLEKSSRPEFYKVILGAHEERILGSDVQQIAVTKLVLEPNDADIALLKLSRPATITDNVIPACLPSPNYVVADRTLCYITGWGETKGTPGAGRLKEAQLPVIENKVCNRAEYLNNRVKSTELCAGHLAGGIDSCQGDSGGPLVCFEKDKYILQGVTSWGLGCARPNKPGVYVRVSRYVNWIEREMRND

SMILES | IC50 (Prothrombin) [nM] | IC50 (Plasminogen) [nM] | IC50 (Serine protease 1) [nM] | IC50 [1] [nM]
CC(C)(C)CC(=O)N[C@H](Cc1ccccc1)C(=O)N1CCC[C@H]1C(=O)N[C@@H](CCCN=C(N)N)C(=O)c1nc2ccccc2[nH]1 | 92.1 | > 2500 | 1010 | > 2500
CC(=O)N[C@H](Cc1ccccc1)C(=O)N[C@@H](Cc1cccc2ccccc12)C(=O)N[C@@H](CCCN=C(N)N)C(=O)c1nc2ccccc2o1 | > 2500 | 14.2 | 6.4 | 29
CC(C)(C)CC(=O)N[C@H](Cc1ccccc1)C(=O)N1CCC[C@H]1C(=O)N[C@@H](CCCNC(=N)N)C(=O)c1nc2ccccc2o1 | 68 | 1320 | 2.3 | 110
CC(=O)N[C@H](Cc1ccccc1)C(=O)N1CCC[C@H]1C(=O)N[C@H]1CCCN(C(=N)N)C1O (some centres undefined) | 284 | > 2500 | 156 | > 2500
CC(=O)N[C@H](Cc1ccccc1)C(=O)N[C@@H](Cc1cccc2ccccc12)C(=O)N[C@H]1CCCN(C(=N)N)C1O (some centres undefined) | > 2500 | < 25 | 25 | –

From ChEMBL document CHEMBL1151074, “RATIONAL DESIGN, SYNTHESIS, AND SERINE PROTEASE INHIBITORY ACTIVITY OF NOVEL P1-ARGININOYL HETEROCYCLES” (Bioorg Med Chem Lett, 1997)
